Assay: relative permittivity at various frequencies (dimensionless)
Settings: Liquid, Frequency=0.001 MHz, Concentric Cylinder Capacitor

Cc1ccccc1 [toluene]
Settings	relative permittivity
303.15 K, 312 kPa	2.37527
303.15 K, 1015 kPa	2.37634
303.15 K, 5058 kPa	2.38253
303.15 K, 10116 kPa	2.38999
303.15 K, 20221 kPa	2.40447
303.15 K, 30317 kPa	2.41824
303.15 K, 40408 kPa	2.43058
303.15 K, 50497 kPa	2.44313
303.15 K, 60603 kPa	2.45469
333.15 K, 402 kPa	2.31204
333.15 K, 995 kPa	2.3134
333.15 K, 5053 kPa	2.32081
333.15 K, 10114 kPa	2.32958
333.15 K, 20221 kPa	2.34637
333.15 K, 30317 kPa	2.36168
333.15 K, 40419 kPa	2.3756
333.15 K, 50510 kPa	2.38883
333.15 K, 60615 kPa	2.40129
363.15 K, 314 kPa	2.24824
363.15 K, 1010 kPa	2.2498
363.15 K, 5053 kPa	2.25867
363.15 K, 10108 kPa	2.26912
363.15 K, 10109 kPa	2.26918
363.15 K, 10111 kPa	2.26913
363.15 K, 20229 kPa	2.28839
363.15 K, 20231 kPa	2.28835
363.15 K, 20232 kPa	2.28831
363.15 K, 30317 kPa	2.30557
363.15 K, 30325 kPa	2.30571
363.15 K, 40408 kPa	2.32135
363.15 K, 50502 kPa	2.33608
363.15 K, 50510 kPa	2.33603
363.15 K, 60614 kPa	2.3499
363.15 K, 60624 kPa	2.34978
393.15 K, 1622 kPa	2.18753
393.15 K, 5063 kPa	2.19687
393.15 K, 5070 kPa	2.19705
393.15 K, 10114 kPa	2.20937
393.15 K, 10123 kPa	2.20955
393.15 K, 20223 kPa	2.23281
393.15 K, 20234 kPa	2.23259
393.15 K, 30331 kPa	2.2527
393.15 K, 40414 kPa	2.27067

Source: the NIST ThermoML archive (doi:10.1021/je400102p)
